Assay results taken from article PMC5216056 (Nature Communications, 2017).

Columns and labels:
[1] = molecular target: T1, hCB1R (Homo sapiens, UniProt P21554); assay: cell-based; type: cell-based
T1 construct: host or cells: CHO

[2] = test system: BZD (central); type: binding; settings: 10 µM
[3] = molecular target: T2, Rat recombinant TRPV4 (Rattus norvegicus, UniProt Q9ERZ8); assay: cell-based; type: cell-based
T2 construct: expressed in transfected cells; host or cells: HEK293 (TRPV4-HEK-293, gift from HB Bradshaw, Indiana University)

[4] = molecular target: hCB2R (Homo sapiens, UniProt P34972); design: expressed in transfected cells; host or cells: Flp-In-293 (Invitrogen #R750-07), pcDNA5/FRT; settings: hCB2R
[5] = molecular target: T3, Rat recombinant TRPM8 (Rattus norvegicus, UniProt Q8R455); assay: TRP channel [Ca2+]i assay; type: cell-based; settings: vs icilin 0.25μM; read-out: TRPM8 IC50 for antagonism of icilin
T3 construct: expressed in transfected cells; host or cells: HEK293 (TRPM8-HEK-293, gift from Mario van der Stelt)

[6] = molecular target: T4, Rat recombinant TRPV3 (Rattus norvegicus, UniProt Q4QYD9); assay: cell-based; type: cell-based
T4 construct: expressed in transfected cells; host or cells: HEK293 (TRPV3-HEK-293, gift from HB Bradshaw, Indiana University)
T4 sequence (Q4QYD9 1-791): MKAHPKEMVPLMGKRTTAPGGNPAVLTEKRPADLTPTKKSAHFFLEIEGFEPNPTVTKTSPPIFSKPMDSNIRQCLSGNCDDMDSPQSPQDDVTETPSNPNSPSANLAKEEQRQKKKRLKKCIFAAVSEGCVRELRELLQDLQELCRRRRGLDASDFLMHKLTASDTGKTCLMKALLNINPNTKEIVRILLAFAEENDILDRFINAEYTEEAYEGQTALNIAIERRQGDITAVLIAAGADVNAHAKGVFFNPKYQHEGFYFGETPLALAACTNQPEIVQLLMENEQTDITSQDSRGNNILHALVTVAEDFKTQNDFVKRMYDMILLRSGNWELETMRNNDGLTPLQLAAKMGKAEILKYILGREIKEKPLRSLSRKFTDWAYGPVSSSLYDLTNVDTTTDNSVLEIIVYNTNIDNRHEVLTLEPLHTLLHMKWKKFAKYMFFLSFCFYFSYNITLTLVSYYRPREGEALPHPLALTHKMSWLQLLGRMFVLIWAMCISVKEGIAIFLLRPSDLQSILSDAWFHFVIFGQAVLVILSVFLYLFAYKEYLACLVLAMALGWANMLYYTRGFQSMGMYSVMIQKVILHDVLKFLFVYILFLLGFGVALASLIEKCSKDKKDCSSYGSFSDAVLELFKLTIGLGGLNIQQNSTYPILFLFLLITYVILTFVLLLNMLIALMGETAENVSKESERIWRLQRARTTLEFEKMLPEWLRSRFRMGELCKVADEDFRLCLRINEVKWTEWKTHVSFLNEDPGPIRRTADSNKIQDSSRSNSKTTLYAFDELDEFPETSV

[7] = molecular target: T1, hCB1R; assay: biochemical; type: biochemical
[8] = 1 μM

Chain of hCB2R (P34972 whole entry): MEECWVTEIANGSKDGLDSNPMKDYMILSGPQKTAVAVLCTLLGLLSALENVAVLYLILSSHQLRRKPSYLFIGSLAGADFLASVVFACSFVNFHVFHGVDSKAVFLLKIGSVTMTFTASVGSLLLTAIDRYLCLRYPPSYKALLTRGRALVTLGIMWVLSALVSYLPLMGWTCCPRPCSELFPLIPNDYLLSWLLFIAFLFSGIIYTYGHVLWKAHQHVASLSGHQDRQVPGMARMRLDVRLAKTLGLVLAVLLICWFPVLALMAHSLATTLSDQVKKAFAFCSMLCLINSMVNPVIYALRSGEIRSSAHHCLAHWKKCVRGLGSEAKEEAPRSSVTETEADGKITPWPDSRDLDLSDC
T1 sequence (P21554 whole entry): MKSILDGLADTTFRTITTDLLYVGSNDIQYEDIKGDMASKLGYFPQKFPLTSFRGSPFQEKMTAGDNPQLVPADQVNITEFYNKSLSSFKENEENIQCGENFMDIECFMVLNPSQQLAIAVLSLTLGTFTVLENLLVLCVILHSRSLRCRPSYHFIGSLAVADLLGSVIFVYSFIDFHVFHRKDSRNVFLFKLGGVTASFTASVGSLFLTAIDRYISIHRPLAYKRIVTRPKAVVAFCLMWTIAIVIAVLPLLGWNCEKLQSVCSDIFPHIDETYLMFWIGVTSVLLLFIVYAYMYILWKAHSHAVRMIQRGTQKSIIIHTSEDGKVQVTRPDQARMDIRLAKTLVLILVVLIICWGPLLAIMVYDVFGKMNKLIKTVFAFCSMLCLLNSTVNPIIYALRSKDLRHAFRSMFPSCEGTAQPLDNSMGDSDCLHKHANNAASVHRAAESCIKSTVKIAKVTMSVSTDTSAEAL
T2 sequence (Q9ERZ8 whole entry): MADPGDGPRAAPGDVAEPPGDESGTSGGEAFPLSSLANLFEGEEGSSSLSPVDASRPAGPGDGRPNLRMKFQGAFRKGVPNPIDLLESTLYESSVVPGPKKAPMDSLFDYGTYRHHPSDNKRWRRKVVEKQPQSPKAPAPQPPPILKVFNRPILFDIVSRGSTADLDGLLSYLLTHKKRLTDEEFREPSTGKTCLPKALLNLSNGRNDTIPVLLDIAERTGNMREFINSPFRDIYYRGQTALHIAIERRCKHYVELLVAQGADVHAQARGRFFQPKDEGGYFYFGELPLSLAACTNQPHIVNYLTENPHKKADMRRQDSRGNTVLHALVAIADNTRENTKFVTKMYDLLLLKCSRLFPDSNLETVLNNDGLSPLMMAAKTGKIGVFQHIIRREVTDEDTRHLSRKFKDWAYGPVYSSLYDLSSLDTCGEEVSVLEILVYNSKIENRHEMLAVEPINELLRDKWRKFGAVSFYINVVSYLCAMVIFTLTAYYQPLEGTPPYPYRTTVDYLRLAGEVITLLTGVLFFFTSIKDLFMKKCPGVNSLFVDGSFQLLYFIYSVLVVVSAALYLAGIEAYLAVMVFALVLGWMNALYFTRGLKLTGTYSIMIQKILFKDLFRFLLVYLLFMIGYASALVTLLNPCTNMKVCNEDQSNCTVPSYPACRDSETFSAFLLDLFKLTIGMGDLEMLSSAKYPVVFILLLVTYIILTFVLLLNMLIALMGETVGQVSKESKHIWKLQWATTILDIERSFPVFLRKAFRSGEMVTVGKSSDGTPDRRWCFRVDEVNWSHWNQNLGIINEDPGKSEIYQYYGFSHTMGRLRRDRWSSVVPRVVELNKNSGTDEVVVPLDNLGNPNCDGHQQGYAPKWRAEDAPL
T3 sequence (Q8R455 whole entry): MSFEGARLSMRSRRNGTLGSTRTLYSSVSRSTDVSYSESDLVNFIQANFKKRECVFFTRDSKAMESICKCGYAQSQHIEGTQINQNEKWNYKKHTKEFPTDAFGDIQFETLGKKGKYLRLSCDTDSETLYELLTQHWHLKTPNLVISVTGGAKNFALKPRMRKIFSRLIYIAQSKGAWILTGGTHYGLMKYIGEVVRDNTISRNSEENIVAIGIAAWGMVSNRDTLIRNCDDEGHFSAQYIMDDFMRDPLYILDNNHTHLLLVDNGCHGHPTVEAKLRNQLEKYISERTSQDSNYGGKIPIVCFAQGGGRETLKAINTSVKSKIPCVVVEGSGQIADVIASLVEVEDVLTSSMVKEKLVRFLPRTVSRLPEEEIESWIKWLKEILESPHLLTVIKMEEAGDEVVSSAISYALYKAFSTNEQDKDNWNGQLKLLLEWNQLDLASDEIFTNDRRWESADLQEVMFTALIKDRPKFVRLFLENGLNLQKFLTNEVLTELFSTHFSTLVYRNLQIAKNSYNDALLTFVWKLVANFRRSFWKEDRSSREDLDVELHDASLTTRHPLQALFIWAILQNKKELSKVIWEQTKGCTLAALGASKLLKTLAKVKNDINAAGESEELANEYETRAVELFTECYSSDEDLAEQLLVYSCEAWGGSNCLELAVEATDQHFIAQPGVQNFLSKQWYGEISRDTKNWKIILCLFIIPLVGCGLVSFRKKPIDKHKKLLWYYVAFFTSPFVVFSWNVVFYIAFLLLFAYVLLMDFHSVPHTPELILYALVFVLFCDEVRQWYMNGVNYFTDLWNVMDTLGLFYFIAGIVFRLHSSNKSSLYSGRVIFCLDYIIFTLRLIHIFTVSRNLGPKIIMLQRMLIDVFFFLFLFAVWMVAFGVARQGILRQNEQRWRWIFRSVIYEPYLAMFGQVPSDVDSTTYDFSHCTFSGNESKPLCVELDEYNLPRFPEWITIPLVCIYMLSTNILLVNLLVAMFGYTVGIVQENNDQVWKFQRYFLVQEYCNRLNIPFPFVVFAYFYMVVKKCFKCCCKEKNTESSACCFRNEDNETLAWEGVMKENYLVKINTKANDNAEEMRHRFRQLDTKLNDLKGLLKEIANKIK

Compound: CCCCCCC(C)(C)c1cc(OC)c([C@@H]2C=C(CO)[C@@H]3C[C@H]2C3(C)C)c(OC)c1 [HU308]
- EC50 [1]: > 10 µM
- Emax ([1]; read-out: Emax ± SEM β-AR recruitment hCB1R): 5 ± 1%
- % inhibition BZD (central) [2]: -26%
- TRPV4 Efficacy (% ionomycin 4μM) [3]: < 10%
- IC50 ([3]; vs 4αPDD 1μM, read-out: TRPV4 IC50 for desensitization): > 100 µM
- GIRK-GTPγS bias factor (BF) [4]: 0.56
- GIRK-GTPγS ΔΔlogR [4]: -0.26
- GIRK-cAMP bias factor (BF) [4]: 4.33
- GIRK-cAMP ΔΔlogR [4]: 0.64 ± 0.17
- GTPγS-cAMP bias factor (BF) [4]: 7.78
- GTPγS-cAMP ΔΔlogR [4]: 0.89 ± 0.30
- LogR GIRK [4]: 6.281
- LogR GTPγS [4]: 6.95
- LogR cAMP [4]: 8.49
- LogR pERK [4]: 7.55
- LogR β-AR [4]: 7.72
- pERK-GIRK bias factor (BF) [4]: 1.25
- pERK-GIRK ΔΔlogR [4]: 0.1 ± 0.3
- pERK-GTPγS bias factor (BF) [4]: 0.70
- pERK-GTPγS ΔΔlogR [4]: -0.16
- pERK-cAMP bias factor (BF) [4]: 5.42
- pERK-cAMP ΔΔlogR [4]: 0.73 ± 0.27
- β-AR-GIRK bias factor (BF) [4]: 6.37
- β-AR-GIRK ΔΔlogR [4]: 0.80 ± 0.19
- β-AR-GTPγS bias factor (BF) [4]: 3.54
- β-AR-GTPγS ΔΔlogR [4]: 0.55 ± 0.32
- β-AR-cAMP bias factor (BF) [4]: 27.16
- β-AR-cAMP ΔΔlogR [4]: 1.43 ± 0.16
- β-AR-pERK bias factor (BF) [4]: 5.08
- β-AR-pERK ΔΔlogR [4]: 0.71 ± 0.29
- ΔLogR GIRK ([4]; reference CP55940): -1.58
- ΔLogR GTPγS ([4]; reference CP55940): -1.33
- ΔLogR cAMP ([4]; reference CP55940): -2.22
- ΔLogR pERK ([4]; reference CP55940): -1.48
- ΔLogR β-AR ([4]; reference CP55940): -0.78
- RE GIRK ([4]; relative effectiveness): 0.03
- RE GTPγS ([4]; relative effectiveness): 0.05
- RE cAMP ([4]; relative effectiveness): 0.006
- RE pERK ([4]; relative effectiveness): 0.03
- RE β-AR ([4]; relative effectiveness): 0.17
- IC50 [5]: > 100 µM
- TRPV3 Efficacy (% ionomycin 4μM) [6]: < 10%
- IC50 ([6]; vs thymol 100μM, read-out: TRPV3 IC50 for antagonism or desensitization): > 100 µM
- EC50 [7]: > 10 µM
- Emax ([7]; read-out: Emax ± SEM GTPγS hCB1R): 17 ± 9%

Compound: Cc1c(C(=O)NN2CCCCC2)nn(-c2ccc(Cl)cc2Cl)c1-c1ccc(I)cc1 [AM251]
- TRPV4 Efficacy (% ionomycin 4μM) [3]: < 10%
- TRPV3 Efficacy (% ionomycin 4μM) [6]: 25.9%

Compound: CN1CCCCC1Cn1cc(C(=O)c2cc([N+](=O)[O-])ccc2I)c2ccccc21 (racemic) [(rac)-AM1241]
- Emax ± SEM β-AR recruitment hCB1R [1]: 6 ± 5
- pEC50 ± SEM β-AR recruitment hCB1R [1]: < 5
- GIRK-GTPγS bias factor (BF) [4]: 1.08
- GIRK-GTPγS ΔΔlogR [4]: 0.03 ± 0.46
- LogR GIRK [4]: 5.52
- LogR GTPγS [4]: 5.9
- LogR pERK [4]: 8.67
- LogR β-AR [4]: 7.95
- pERK-GIRK bias factor (BF) [4]: 95.72
- pERK-GIRK ΔΔlogR [4]: 1.98 ± 0.71
- pERK-GTPγS bias factor (BF) [4]: 103.28
- pERK-GTPγS ΔΔlogR [4]: 2.01 ± 0.8
- β-AR-GIRK bias factor (BF) [4]: 62.37
- β-AR-GIRK ΔΔlogR [4]: 1.8 ± 0.49
- β-AR-GTPγS bias factor (BF) [4]: 68.30
- β-AR-GTPγS ΔΔlogR [4]: 1.83 ± 0.61
- β-AR-pERK bias factor (BF) [4]: 0.65
- β-AR-pERK ΔΔlogR [4]: -0.19 ± 0.81
- ΔLogR GIRK ([4]; reference CP55940): -2.35
- ΔLogR GTPγS ([4]; reference CP55940): -2.38
- ΔLogR pERK ([4]; reference CP55940): -0.37
- ΔLogR β-AR ([4]; reference CP55940): -0.55
- RE GIRK ([4]; relative effectiveness): 0.004
- RE GTPγS ([4]; relative effectiveness): 0.004
- RE pERK ([4]; relative effectiveness): 0.43
- RE β-AR ([4]; relative effectiveness): 0.28
- Emax ± SEM GTPγS hCB1R [7]: 42 ± 6
- CL microsomes human [8]: 111 µL/min/mg protein

Compound: SR144528
- Emax ± SEM β-AR recruitment hCB1R [1]: -82 ± 5
- % inhibition BZD (central) [2]: -3%
- TRPV4 Efficacy (% ionomycin 4μM) [3]: < 10%
- TRPV3 Efficacy (% ionomycin 4μM) [6]: < 10%
